Test results published in ChEMBL document CHEMBL3991601, “The target landscape of clinical kinase drugs” (Science, 2017).
The source made the active and inactive calls. Rule as the data show it, for most assays here: actives have a measured Kd and inactives only a lower limit.

molecular target: T1, Serine/threonine-protein kinase ULK1 (Homo sapiens, UniProt O75385)
T1 sequence (O75385 whole entry): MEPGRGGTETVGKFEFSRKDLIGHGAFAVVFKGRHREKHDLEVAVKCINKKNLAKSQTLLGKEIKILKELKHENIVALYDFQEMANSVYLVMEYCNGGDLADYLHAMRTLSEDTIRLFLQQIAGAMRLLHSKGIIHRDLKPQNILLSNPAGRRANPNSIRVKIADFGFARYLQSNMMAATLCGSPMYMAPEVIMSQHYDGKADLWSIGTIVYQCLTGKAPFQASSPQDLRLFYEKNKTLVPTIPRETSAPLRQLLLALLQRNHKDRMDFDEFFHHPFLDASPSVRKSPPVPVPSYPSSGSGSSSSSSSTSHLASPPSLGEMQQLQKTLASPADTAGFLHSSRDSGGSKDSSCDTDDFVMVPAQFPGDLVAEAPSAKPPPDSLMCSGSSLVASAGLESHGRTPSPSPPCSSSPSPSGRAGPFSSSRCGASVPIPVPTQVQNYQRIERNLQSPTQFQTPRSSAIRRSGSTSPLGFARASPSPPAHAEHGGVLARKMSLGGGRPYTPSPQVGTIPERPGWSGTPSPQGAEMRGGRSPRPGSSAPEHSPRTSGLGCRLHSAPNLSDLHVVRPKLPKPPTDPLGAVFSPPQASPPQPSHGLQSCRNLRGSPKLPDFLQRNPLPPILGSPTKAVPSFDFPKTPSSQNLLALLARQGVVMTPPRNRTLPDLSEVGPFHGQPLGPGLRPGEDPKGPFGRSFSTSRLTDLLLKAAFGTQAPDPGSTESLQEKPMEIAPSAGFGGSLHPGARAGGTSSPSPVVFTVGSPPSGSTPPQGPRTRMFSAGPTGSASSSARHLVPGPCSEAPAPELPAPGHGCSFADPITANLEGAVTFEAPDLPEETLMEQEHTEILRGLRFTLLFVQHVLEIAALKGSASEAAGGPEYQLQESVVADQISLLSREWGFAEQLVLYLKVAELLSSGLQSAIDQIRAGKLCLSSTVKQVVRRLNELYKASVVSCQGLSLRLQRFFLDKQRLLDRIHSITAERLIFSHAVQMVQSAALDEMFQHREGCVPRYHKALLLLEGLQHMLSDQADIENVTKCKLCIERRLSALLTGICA
Also: in the data inactive means no Kd found up to 30 µM.

Q: For `O=C(c1ccc(F)c(F)c1Nc1ccc(I)cc1F)N1CC(O)([C@@H]2CCCCN2)C1` [COBIMETINIB], which Kd is on record?
A: > 30 µM (inactive)

Q: With `COC(=O)N[C@@H](C)CNc1nccc(-c2cn(C(C)C)nc2-c2cc(Cl)cc(NS(C)(=O)=O)c2F)n1` [ENCORAFENIB] as the compound, how does the Kd read?
A: > 30 µM (inactive)

Q: How did the Kd turn out when `O=C1NC(=O)/C(=C/c2ccc3nccc(-c4ccncc4)c3c2)S1` [GSK-1059615] was run?
A: > 30 µM (inactive)

Q: How did the Kd turn out when `CC[C@H](Nc1ncnc2[nH]cnc12)c1nc2cccc(F)c2c(=O)n1-c1ccccc1` [IDELALISIB] was run?
A: > 30 µM (inactive)

molecular target: Insulin-like growth factor 1 receptor (Homo sapiens, UniProt P08069)
Sequence (P08069 31-736 limits assumed): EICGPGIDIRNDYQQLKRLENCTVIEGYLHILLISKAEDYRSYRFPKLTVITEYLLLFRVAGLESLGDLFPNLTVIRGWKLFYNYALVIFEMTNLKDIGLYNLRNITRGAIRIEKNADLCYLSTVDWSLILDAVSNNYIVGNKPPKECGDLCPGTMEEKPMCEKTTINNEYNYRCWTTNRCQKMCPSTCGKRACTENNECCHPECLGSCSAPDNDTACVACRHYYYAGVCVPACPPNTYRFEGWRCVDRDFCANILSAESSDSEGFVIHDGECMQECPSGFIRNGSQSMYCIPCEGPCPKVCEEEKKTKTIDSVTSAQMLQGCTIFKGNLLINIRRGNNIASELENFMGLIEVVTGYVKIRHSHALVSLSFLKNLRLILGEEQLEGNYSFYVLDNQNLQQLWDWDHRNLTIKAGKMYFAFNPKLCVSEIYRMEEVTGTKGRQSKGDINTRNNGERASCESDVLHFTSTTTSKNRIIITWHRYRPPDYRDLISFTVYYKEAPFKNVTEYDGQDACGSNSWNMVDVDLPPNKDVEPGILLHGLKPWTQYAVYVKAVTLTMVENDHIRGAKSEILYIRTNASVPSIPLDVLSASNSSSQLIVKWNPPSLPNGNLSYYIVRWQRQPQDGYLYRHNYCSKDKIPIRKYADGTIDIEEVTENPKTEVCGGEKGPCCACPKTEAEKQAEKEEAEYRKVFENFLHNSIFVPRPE
Sequence (P08069 741-1367 limits assumed): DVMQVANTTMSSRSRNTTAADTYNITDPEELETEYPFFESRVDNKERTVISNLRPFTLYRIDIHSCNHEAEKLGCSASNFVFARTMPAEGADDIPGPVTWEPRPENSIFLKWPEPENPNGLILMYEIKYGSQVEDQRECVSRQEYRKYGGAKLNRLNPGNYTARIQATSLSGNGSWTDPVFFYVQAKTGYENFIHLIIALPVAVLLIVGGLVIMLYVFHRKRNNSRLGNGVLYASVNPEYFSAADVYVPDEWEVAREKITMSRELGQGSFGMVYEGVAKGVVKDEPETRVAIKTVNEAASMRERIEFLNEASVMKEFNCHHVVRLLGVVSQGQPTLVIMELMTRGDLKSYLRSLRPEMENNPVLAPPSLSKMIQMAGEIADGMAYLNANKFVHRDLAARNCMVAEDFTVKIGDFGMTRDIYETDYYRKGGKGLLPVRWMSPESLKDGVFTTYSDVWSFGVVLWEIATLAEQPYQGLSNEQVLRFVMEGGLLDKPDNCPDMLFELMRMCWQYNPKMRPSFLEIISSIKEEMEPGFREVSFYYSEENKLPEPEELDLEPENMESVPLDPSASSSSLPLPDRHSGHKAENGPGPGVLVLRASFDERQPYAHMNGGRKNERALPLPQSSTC

Q: For `O=C(c1ccc(F)c(F)c1Nc1ccc(I)cc1F)N1CC(O)([C@@H]2CCCCN2)C1` [COBIMETINIB], which Kd is on record?
A: > 30 µM (inactive)

Q: `COC(=O)N[C@@H](C)CNc1nccc(-c2cn(C(C)C)nc2-c2cc(Cl)cc(NS(C)(=O)=O)c2F)n1` [ENCORAFENIB] was tested. Which Kd did it give?
A: > 30 µM (inactive)

Q: For `O=C1NC(=O)/C(=C/c2ccc3nccc(-c4ccncc4)c3c2)S1` [GSK-1059615], which Kd is on record?
A: > 30 µM (inactive)

Q: With `CC[C@H](Nc1ncnc2[nH]cnc12)c1nc2cccc(F)c2c(=O)n1-c1ccccc1` [IDELALISIB] as the compound, how does the Kd read?
A: > 30 µM (inactive)

molecular target: TGF-beta receptor type-2 (Homo sapiens, UniProt P37173)
Sequence (P37173 whole entry): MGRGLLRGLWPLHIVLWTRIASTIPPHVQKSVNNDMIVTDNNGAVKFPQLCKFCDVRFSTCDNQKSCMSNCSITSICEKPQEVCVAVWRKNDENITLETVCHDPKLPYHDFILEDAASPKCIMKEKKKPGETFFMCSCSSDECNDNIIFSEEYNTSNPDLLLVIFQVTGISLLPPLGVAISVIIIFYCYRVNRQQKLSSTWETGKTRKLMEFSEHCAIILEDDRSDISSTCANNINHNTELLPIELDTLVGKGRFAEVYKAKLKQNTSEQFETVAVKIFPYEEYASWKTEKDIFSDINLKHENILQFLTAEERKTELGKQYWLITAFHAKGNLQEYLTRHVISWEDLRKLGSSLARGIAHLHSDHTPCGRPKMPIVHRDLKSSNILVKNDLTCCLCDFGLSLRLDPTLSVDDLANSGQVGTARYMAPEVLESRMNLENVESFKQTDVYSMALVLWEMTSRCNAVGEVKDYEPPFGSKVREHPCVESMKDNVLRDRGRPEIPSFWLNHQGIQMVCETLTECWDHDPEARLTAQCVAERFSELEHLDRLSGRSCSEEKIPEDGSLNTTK

Q: With `O=C(c1ccc(F)c(F)c1Nc1ccc(I)cc1F)N1CC(O)([C@@H]2CCCCN2)C1` [COBIMETINIB] as the compound, how does the Kd read?
A: > 30 µM (inactive)

Q: With `COC(=O)N[C@@H](C)CNc1nccc(-c2cn(C(C)C)nc2-c2cc(Cl)cc(NS(C)(=O)=O)c2F)n1` [ENCORAFENIB] as the compound, how does the Kd read?
A: > 30 µM (inactive)

Q: `O=C1NC(=O)/C(=C/c2ccc3nccc(-c4ccncc4)c3c2)S1` [GSK-1059615] was tested. Which Kd did it give?
A: > 30 µM (inactive)

Q: With `CC[C@H](Nc1ncnc2[nH]cnc12)c1nc2cccc(F)c2c(=O)n1-c1ccccc1` [IDELALISIB] as the compound, how does the Kd read?
A: > 30 µM (inactive)

molecular target: T2, Rab-like protein 3 (Homo sapiens, UniProt Q5HYI8)
T2 sequence (Q5HYI8 whole entry): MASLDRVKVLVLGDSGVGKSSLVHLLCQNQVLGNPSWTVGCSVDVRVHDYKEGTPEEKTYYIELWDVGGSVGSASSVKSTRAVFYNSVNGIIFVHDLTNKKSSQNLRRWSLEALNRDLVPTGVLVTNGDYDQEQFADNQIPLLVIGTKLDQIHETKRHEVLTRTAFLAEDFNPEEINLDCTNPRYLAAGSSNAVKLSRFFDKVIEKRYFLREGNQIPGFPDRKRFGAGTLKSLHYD

Q: With `O=C(c1ccc(F)c(F)c1Nc1ccc(I)cc1F)N1CC(O)([C@@H]2CCCCN2)C1` [COBIMETINIB] as the compound, how does the Kd read?
A: > 30 µM (inactive)

Q: For `COC(=O)N[C@@H](C)CNc1nccc(-c2cn(C(C)C)nc2-c2cc(Cl)cc(NS(C)(=O)=O)c2F)n1` [ENCORAFENIB], which Kd is on record?
A: > 30 µM (inactive)

Q: For `O=C1NC(=O)/C(=C/c2ccc3nccc(-c4ccncc4)c3c2)S1` [GSK-1059615], which Kd is on record?
A: > 30 µM (inactive)

Q: `CC[C@H](Nc1ncnc2[nH]cnc12)c1nc2cccc(F)c2c(=O)n1-c1ccccc1` [IDELALISIB] was tested. Which Kd did it give?
A: > 30 µM (inactive)

molecular target: T3, MAP kinase-activated protein kinase 5 (Homo sapiens, UniProt Q8IW41)
T3 sequence (Q8IW41 whole entry): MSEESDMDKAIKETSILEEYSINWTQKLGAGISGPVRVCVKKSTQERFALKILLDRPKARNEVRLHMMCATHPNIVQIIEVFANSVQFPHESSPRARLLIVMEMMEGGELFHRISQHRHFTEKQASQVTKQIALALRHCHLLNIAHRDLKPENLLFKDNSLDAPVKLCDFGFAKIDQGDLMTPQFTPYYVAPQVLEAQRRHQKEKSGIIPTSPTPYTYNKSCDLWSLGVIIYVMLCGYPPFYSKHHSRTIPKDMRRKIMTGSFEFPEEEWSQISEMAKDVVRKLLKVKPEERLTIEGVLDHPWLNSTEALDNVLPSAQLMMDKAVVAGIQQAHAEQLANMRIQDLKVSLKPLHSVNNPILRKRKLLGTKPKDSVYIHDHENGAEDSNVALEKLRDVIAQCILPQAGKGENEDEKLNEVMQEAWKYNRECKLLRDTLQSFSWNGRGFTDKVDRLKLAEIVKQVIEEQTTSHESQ

Q: How did the Kd turn out when `O=C(c1ccc(F)c(F)c1Nc1ccc(I)cc1F)N1CC(O)([C@@H]2CCCCN2)C1` [COBIMETINIB] was run?
A: > 30 µM (inactive)

Q: Which Kd does the source give for `COC(=O)N[C@@H](C)CNc1nccc(-c2cn(C(C)C)nc2-c2cc(Cl)cc(NS(C)(=O)=O)c2F)n1` [ENCORAFENIB] here?
A: > 30 µM (inactive)

Q: With `O=C1NC(=O)/C(=C/c2ccc3nccc(-c4ccncc4)c3c2)S1` [GSK-1059615] as the compound, how does the Kd read?
A: > 30 µM (inactive)

Q: Which Kd does the source give for `CC[C@H](Nc1ncnc2[nH]cnc12)c1nc2cccc(F)c2c(=O)n1-c1ccccc1` [IDELALISIB] here?
A: > 30 µM (inactive)

molecular target: Focal adhesion kinase 1 (Homo sapiens, UniProt Q05397)
Sequence (Q05397 whole entry): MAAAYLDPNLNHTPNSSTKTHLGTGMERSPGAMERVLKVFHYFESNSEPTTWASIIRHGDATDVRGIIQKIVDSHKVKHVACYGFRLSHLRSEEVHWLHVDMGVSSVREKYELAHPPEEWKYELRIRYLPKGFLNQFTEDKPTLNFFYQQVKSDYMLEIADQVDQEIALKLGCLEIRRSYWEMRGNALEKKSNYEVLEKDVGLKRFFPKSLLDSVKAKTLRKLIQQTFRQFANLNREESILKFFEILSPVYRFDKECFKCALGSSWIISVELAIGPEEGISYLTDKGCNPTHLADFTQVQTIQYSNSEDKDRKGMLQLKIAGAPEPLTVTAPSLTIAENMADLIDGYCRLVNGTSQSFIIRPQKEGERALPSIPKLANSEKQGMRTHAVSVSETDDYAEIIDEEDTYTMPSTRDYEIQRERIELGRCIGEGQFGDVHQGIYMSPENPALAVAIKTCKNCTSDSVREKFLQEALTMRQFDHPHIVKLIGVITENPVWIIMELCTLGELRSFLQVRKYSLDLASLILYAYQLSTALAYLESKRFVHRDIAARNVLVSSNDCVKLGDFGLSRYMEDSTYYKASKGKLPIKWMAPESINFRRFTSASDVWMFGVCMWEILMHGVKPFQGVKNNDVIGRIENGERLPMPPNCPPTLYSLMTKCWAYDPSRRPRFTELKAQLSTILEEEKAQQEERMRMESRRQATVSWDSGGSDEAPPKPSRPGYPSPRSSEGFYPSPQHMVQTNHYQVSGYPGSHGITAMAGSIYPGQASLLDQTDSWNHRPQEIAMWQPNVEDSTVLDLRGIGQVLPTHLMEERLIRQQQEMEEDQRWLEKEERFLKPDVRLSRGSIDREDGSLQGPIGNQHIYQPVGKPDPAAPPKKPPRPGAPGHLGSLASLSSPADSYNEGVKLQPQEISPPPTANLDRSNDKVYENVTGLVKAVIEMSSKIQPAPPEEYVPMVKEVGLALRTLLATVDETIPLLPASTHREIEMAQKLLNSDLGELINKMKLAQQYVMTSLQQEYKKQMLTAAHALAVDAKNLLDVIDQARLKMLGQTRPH

Q: How did the Kd turn out when `O=C(c1ccc(F)c(F)c1Nc1ccc(I)cc1F)N1CC(O)([C@@H]2CCCCN2)C1` [COBIMETINIB] was run?
A: > 30 µM (inactive)

Q: How did the Kd turn out when `COC(=O)N[C@@H](C)CNc1nccc(-c2cn(C(C)C)nc2-c2cc(Cl)cc(NS(C)(=O)=O)c2F)n1` [ENCORAFENIB] was run?
A: > 30 µM (inactive)

Q: How did the Kd turn out when `O=C1NC(=O)/C(=C/c2ccc3nccc(-c4ccncc4)c3c2)S1` [GSK-1059615] was run?
A: > 30 µM (inactive)

Q: With `CC[C@H](Nc1ncnc2[nH]cnc12)c1nc2cccc(F)c2c(=O)n1-c1ccccc1` [IDELALISIB] as the compound, how does the Kd read?
A: > 30 µM (inactive)

molecular target: Calcium/calmodulin-dependent protein kinase kinase 2 (Homo sapiens, UniProt Q96RR4)
Sequence (Q96RR4 whole entry): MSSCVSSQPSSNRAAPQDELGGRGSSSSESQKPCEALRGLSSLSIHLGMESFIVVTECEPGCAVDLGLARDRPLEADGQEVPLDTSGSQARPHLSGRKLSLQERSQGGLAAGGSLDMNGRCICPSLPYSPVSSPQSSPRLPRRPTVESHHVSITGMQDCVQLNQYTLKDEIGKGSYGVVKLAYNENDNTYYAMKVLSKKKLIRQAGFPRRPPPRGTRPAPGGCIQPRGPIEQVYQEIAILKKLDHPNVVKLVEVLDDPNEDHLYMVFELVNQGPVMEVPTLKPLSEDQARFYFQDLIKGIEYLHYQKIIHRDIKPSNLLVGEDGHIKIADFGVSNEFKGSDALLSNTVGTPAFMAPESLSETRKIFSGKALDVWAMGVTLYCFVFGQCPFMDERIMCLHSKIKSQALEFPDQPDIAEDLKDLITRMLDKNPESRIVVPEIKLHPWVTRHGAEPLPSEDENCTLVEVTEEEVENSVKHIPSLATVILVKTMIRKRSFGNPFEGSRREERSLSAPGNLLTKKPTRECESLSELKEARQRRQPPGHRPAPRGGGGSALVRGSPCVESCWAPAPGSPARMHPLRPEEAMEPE

Q: Which Kd does the source give for `O=C(c1ccc(F)c(F)c1Nc1ccc(I)cc1F)N1CC(O)([C@@H]2CCCCN2)C1` [COBIMETINIB] here?
A: > 30 µM (inactive)

Q: With `COC(=O)N[C@@H](C)CNc1nccc(-c2cn(C(C)C)nc2-c2cc(Cl)cc(NS(C)(=O)=O)c2F)n1` [ENCORAFENIB] as the compound, how does the Kd read?
A: > 30 µM (inactive)

Q: How did the Kd turn out when `O=C1NC(=O)/C(=C/c2ccc3nccc(-c4ccncc4)c3c2)S1` [GSK-1059615] was run?
A: > 30 µM (inactive)

Q: How did the Kd turn out when `CC[C@H](Nc1ncnc2[nH]cnc12)c1nc2cccc(F)c2c(=O)n1-c1ccccc1` [IDELALISIB] was run?
A: > 30 µM (inactive)

molecular target: T4, Phosphorylase b kinase gamma catalytic chain, liver/testis isoform (Homo sapiens, UniProt P15735)
T4 sequence (P15735 whole entry): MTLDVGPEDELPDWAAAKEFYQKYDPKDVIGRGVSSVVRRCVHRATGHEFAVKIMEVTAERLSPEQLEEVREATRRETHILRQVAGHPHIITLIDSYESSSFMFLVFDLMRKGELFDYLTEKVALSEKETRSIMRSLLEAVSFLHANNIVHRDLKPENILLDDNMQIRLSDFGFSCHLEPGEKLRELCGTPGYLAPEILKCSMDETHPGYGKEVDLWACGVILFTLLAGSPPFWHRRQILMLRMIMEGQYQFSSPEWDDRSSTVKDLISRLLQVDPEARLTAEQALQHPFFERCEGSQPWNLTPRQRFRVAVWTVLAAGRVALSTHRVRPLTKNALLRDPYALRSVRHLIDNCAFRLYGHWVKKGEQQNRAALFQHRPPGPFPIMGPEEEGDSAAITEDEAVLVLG

Q: With `O=C(c1ccc(F)c(F)c1Nc1ccc(I)cc1F)N1CC(O)([C@@H]2CCCCN2)C1` [COBIMETINIB] as the compound, how does the Kd read?
A: > 30 µM (inactive)

Q: For `COC(=O)N[C@@H](C)CNc1nccc(-c2cn(C(C)C)nc2-c2cc(Cl)cc(NS(C)(=O)=O)c2F)n1` [ENCORAFENIB], which Kd is on record?
A: > 30 µM (inactive)

Q: With `O=C1NC(=O)/C(=C/c2ccc3nccc(-c4ccncc4)c3c2)S1` [GSK-1059615] as the compound, how does the Kd read?
A: > 30 µM (inactive)

Q: How did the Kd turn out when `CC[C@H](Nc1ncnc2[nH]cnc12)c1nc2cccc(F)c2c(=O)n1-c1ccccc1` [IDELALISIB] was run?
A: > 30 µM (inactive)
